Experimental data from patent publication US8648037B2, “Macrocyclic proline derived HCV serine protease inhibitors” (priority 2010, dated 2014).
pEC50: −log10 of the molar value.

What was measured:
HCV R155K variants = details: Bartels 2008, Lu 2004, Zhou 2007; cited from earlier work
[1] = tested on: HCV genotype 1a (1a-H77) stable subgenomic replicon; assay: genotype 1a Huh-7 stable replicon assay (luciferase reporter); format: cell-based, hepatitis C virus (HCV); details: Hepatitis C virus, 5% FBS
[2] = tested on: HCV genotype 1b Con1 stable subgenomic replicon; assay: genotype 1b Con1 stable replicon assay (luciferase reporter); format: cell-based, hepatitis C virus (HCV); details: Hepatitis C virus
[3] = tested on: HCV genotype 1a wild-type transient replicon; assay: genotype 1a wild-type transient replicon assay; format: cell-based, hepatitis C virus (HCV); details: Hepatitis C virus
[4] = tested on: HCV genotype 1a R155K variant transient replicon; assay: genotype 1a R155K transient replicon assay; format: cell-based, hepatitis C virus (HCV); details: Hepatitis C virus
[5] = tested on: HCV genotype 1a D168E variant transient replicon; assay: genotype 1a D168E transient replicon assay; format: cell-based, hepatitis C virus (HCV); details: Hepatitis C virus
[6] = tested on: HCV genotype 1a D168V variant transient replicon; assay: genotype 1a D168V transient replicon assay; format: cell-based, hepatitis C virus (HCV); details: Hepatitis C virus
[7] = tested on: HCV genotype 1b wild-type transient replicon; assay: genotype 1b wild-type transient replicon assay; format: cell-based, hepatitis C virus (HCV); details: Hepatitis C virus
[8] = tested on: HCV genotype 1b R155K variant transient replicon; assay: genotype 1b R155K transient replicon assay; format: cell-based, hepatitis C virus (HCV); details: Hepatitis C virus
[9] = tested on: HCV genotype 1b D168V variant transient replicon; assay: genotype 1b D168V transient replicon assay; format: cell-based, hepatitis C virus (HCV); details: Hepatitis C virus
[10] = tested on: HCV genotype 3a wild-type transient replicon; assay: genotype 3a wild-type transient replicon assay; format: cell-based, hepatitis C virus (HCV); details: Hepatitis C virus
[11] = tested on: HCV genotype 3a A166T variant transient replicon; assay: genotype 3a A166T transient replicon assay; format: cell-based, hepatitis C virus (HCV); details: Hepatitis C virus
[12] = tested on: HCV genotype 3a Q168R variant transient replicon; assay: genotype 3a Q168R transient replicon assay; format: cell-based, hepatitis C virus (HCV); details: Hepatitis C virus
[13] = tested on: HCV genotype 3a S138T variant transient replicon; assay: genotype 3a S138T transient replicon assay; format: cell-based, hepatitis C virus (HCV); details: Hepatitis C virus
[14] = tested on: HCV genotype 3a wild-type stable replicon (chimeric, NS3 gene from genotype 3a isolates); assay: genotype 3a wild-type stable replicon assay; format: cell-based, hepatitis C virus (HCV); details: Hepatitis C virus
HCV = details: after R155K (danoprevir) or R155K/D168V (vaniprevir) variants detected; cited from earlier work

| SMILES | resistance conferred by R155K variants (HCV R155K variants) | pEC50 [1] | pEC50 [2] | pEC50 [3] | pEC50 [4] | pEC50 [5] | pEC50 [6] | pEC50 [7] | pEC50 [8] | pEC50 [9] | pEC50 [10] | pEC50 [11] | pEC50 [12] | pEC50 [13] | pEC50 [14] | viral load in patients receiving treatment (HCV) |
| --- | --- | --- | --- | --- | --- | --- | --- | --- | --- | --- | --- | --- | --- | --- | --- | --- |
| COc1ccc2c(O[C@@H]3C[C@H]4C(=O)N[C@]5(C(=O)O)C[C@H]5/C=C\CCCCC[C@H](NC(=O)OC5CCCC5)C(=O)N4C3)cc(-c3csc(NC(C)C)n3)nc2c1 [BILN 2061] | high-level resistance |  |  |  |  |  |  |  |  |  |  |  |  |  |  |  |
| CC[C@@H]1C[C@]1(NC(=O)[C@@H]1C[C@@H]2CN1C(=O)[C@H](C(C)(C)C)NC(=O)O[C@@H]1CCC[C@H]1OC/C=C/C(F)(F)c1nc3ccccc3nc1O2)C(=O)NS(=O)(=O)C1CC1 [Example 4] |  | > 9.00 | 8.00 to 9.00 | 9.00 to 10.00 | 9.00 to 10.00 | > 9.00 | 6.00 to 8.00 | > 9.00 | > 9.00 | 7.00 to 9.00 | 7.00 to 8.00 | 6.30 to 7.00 | 6.00 to 7.00 | 6.00 to 7.00 |  |  |
| CC(C)(C)[C@@H]1NC(=O)O[C@@H]2CCC[C@H]2OC/C=C/C(F)(F)c2nc3ccccc3nc2O[C@@H]2C[C@@H](C(=O)N[C@]3(C(=O)NS(=O)(=O)C4(C)CC4)C[C@H]3C(F)F)N(C2)C1=O [Example 6] |  | > 9.00 | 8.00 to 9.00 | > 10.00 | > 10.00 | > 9.00 | > 9.00 | > 9.00 | > 9.00 | > 9.00 | > 8.00 | > 7.00 | > 7.00 | > 7.00 | > 8.00 |  |
| CC[C@@H]1C[C@]1(NC(=O)[C@@H]1C[C@@H]2CN1C(=O)[C@H](C(C)(C)C)NC(=O)O[C@@H]1CCC[C@H]1OC/C=C/C(F)(F)c1nc3ccccc3nc1O2)C(=O)NS(=O)(=O)C1(C)CC1 [Example 8] |  | > 9.00 | 8.00 to 9.00 | 9.00 to 10.00 | > 10.00 | > 9.00 | 8.00 to 9.00 | > 9.00 | > 9.00 | 7.00 to 9.00 | 7.00 to 8.00 | 6.30 to 7.00 | 6.00 to 7.00 | 6.00 to 7.00 |  |  |
| C=C[C@@H]1C[C@]1(NC(=O)[C@@H]1C[C@@H]2CN1C(=O)[C@H](C(C)(C)C)NC(=O)O[C@@H]1CCC[C@H]1OC/C=C/C(F)(F)c1nc3ccccc3nc1O2)C(=O)NS(=O)(=O)C1CC1 [Example 1] |  | > 9.00 | 8.00 to 9.00 | 9.00 to 10.00 | 9.00 to 10.00 | > 9.00 | 8.00 to 9.00 | > 9.00 | > 9.00 | > 9.00 | 7.00 to 8.00 | 6.30 to 7.00 | 6.00 to 7.00 | 6.00 to 7.00 | > 8.00 |  |
| CC[C@@H]1C[C@]1(NC(=O)[C@@H]1C[C@@H]2CN1C(=O)[C@H](C(C)(C)C)NC(=O)OCC(C)(C)CCCCc1cccc3c1CN(C3)C(=O)O2)C(=O)NS(=O)(=O)C1CC1 [vaniprevir] |  |  |  |  |  |  |  |  |  |  |  |  |  |  |  | viral load rebound |
| CC(C)(C)[C@@H]1NC(=O)O[C@@H]2CCC[C@H]2OC/C=C/C(F)(F)c2nc3ccccc3nc2O[C@@H]2C[C@@H](C(=O)N[C@]3(C(=O)NS(=O)(=O)C4CC4)C[C@H]3C(F)F)N(C2)C1=O [Example 2] |  | 8.00 to 9.00 | 8.00 to 9.00 | 9.00 to 10.00 | > 10.00 | > 9.00 | > 9.00 | > 9.00 | > 9.00 | 7.00 to 9.00 | > 8.00 | > 7.00 | 6.00 to 7.00 | 6.00 to 7.00 | > 8.00 |  |
| C=C[C@@H]1C[C@]1(NC(=O)[C@@H]1C[C@@H]2CN1C(=O)[C@H](C(C)(C)C)NC(=O)O[C@@H]1CCC[C@H]1OC/C=C/C(F)(F)c1nc3ccccc3nc1O2)C(=O)NS(=O)(=O)C1(C)CC1 [Example 5] |  | > 9.00 | 8.00 to 9.00 | > 10.00 | > 10.00 | > 9.00 | > 9.00 | > 9.00 | > 9.00 | > 9.00 | > 8.00 | > 7.00 | > 7.00 |  | > 8.00 |  |
| CC(C)(C)OC(=O)N[C@H]1CCCCC/C=C\[C@@H]2C[C@@]2(C(=O)NS(=O)(=O)C2CC2)NC(=O)[C@@H]2C[C@@H](OC(=O)N3Cc4cccc(F)c4C3)CN2C1=O [danoprevir] | high-level resistance |  |  |  |  |  |  |  |  |  |  |  |  |  |  | Viral load rebound |
